Publication PMC12123366, “Effect of urea and squaramide IMPDH inhibitors on C. parvum: in vitro trial design impacts the assessment of drug efficacy” (International Journal for Parasitology: Drugs and Drug …, 2025)
Like-named read-outs stand apart in the source and are kept apart here.

How the values were obtained:
[1] = CytoTox 96 Non-Radioactive Cytotoxicity Assay; type: cell-based, Human; conditions: human; HCT-8 cells, 10 µM
Description: (§1) HCT-8 cell lines (Human ileocecal adenocarcinoma) were purchased from The European Collection of Authenticated Cell Cultures (ECACC) under catalogue number No 90032006) and maintained with regular subculturing in a growth medium consisting in a RPMI 1640 medium supplemented with 1 mM sodium pyruvate, 2 mM l-glutamine, 10 % (vol/vol) of heat-inactivated fetal calf serum, 100 U/mL of penicillin and 100 μg/mL of streptomycin. Cells were grown in an incubator at 37 °C with 5 % (vol/vol) CO2 until monolayers reached 80–90 % confluency. Cells were cultivated in 96-well format plate for molecular analysis and in Lab-Tek™ Chamber Slides for microscopic analysis. 50,000 cells were seeded and incubated during 24 h (until confluency) before infection.
(§2) The compounds (2 mg/mL in DMSO) were diluted to 500 μM and serially diluted in maintenance medium. The cytotoxicity of the compounds was assessed using the CytoTox 96® Non-Radioactive Cytotoxicity Assay (Promega, G1790) in accordance with the manufacturer's protocol.
An initial screening experiment was conducted on the full library to evaluate the cytotoxicity effects on HCT-8 cells. Nitrophenylurea 12 was identified as being cytotoxic so was not progressed further (See Supporting Information). In total, 21 candidates were assessed for their ability to inhibit C. parvum replication at a concentration of 10 μM. Each compound was added at the start of the infection of HCT-8 cells (T0) and remained in the culture for 48 h post infection (hpi). Parasitic quantification was then performed using a molecular method (qPCR). Of the 21 compounds tested, nine were effective inhibitors, reducing parasite proliferation by 80 % or more (Fig. 6). A clear trend emerged with all of the benzyl-substituted ureas 6–10 displaying poor inhibitory activity, regardless of the attached heteroaryl substituent. […] Two exceptions to this were imidazole-containing analogues 18 and 19. […] Among the squaramide series, the results were highly dependent on the nature of the substituent, ranging from high (e.g. ketone 29, furan 32), medium (e.g. 3-pyrazole 30) to low (e.g. 4-pyrazole 31) anti-cryptosporidial activity.

[2] = tested on: C. parvum; assay: Inhibition of C. parvum replication in infected HCT-8 cells, parasite quantification by qPCR; type: cell-based, Cryptosporidium parvum (Iowa strain) in human HCT-8 cells; conditions: for anti-cryptosporidial activity (in words) / inhibition at 10 µM: 10 μM; for anti-cryptosporidial activity (in words): added at T0, 48 hpi; for inhibition at 10 µM / IC50: Cryptosporidium parvum, HCT-8; for inhibition at 10 µM: added at start of infection (T0), 48 hpi, mean ± SD (n = 3 wells), read-out: inhibition rate of C. parvum replication
Description: as §1
(§3) C. parvum oocysts of “Iowa” strain was purchased from Waterborne Inc. and stored in PBS at 4 °C. A ratio of one oocyst per cell was used to infect HCT-8 cell. Oocysts suspension was incubated with 10 % of a solution (vol/vol) containing 0.5 % sodium hypochlorite for 10 min at 4 °C. After a washing step by centrifugation at 1800g for 15 min at 4 °C, oocysts were incubated in acidified water (pH 2.4) containing 0.025 % (wt/vol) of trypsin, at 37 °C for 20 min, to trigger excystation (infectivity assay developed by [Keegan et al., 2003]). After a third centrifugation step at 1800 g for 10 min, oocysts were suspended in a maintenance medium. The maintenance medium consisted of RPMI 1640 medium with 2 mM l-glutamine, 5 mM glucose, 0.5 μM folic acid, 7 μM 4-amino-benzoic acid, 0.1 μM calcium pantothenate, 50 nM ascorbic acid, 2 % (vol/vol) heat inactivated fetal calf serum and 100 U/mL of streptomycin/penicillin. Before oocyst inoculation, the growth medium was switched with maintenance medium. Triggered oocysts were finally added on monolayers and incubated during 48 h at 37 °C in a 5 % (vol/vol) CO2 atmosphere.
as §2
The COWP gene (GenBank no. AF248743) was amplified by qPCR following the previously described protocol ([Guy et al., 2003]), and the parasitic concentration was determined using the standard range of C. parvum oocyst concentrations. Briefly, serial dilutions from a pure C. parvum oocyst suspension were made starting from a stock solution of 5 × 10^7 oocysts (4 × 10^5 – 2 × 10^5 – 1 × 10^5 – […]–2.5 × 10^3–1.25 × 10^3 oocysts) and the standard curve for quantifying parasites was created to obtain a correlation between Cq values and the Log of concentration.
At the end of the experiment, supernatants from the C. parvum-infected cell cultures were collected. The cell layers were then washed (1x PBS), detached using trypsin (0.25 %), and centrifuged (10,000×g, 10 min). The resulting cell pellet was re-suspended in 150–200 μL of sterile 1x PBS and stored at −20 °C for later DNA extraction. DNA extraction of C. parvum was performed using the Purelink™ Microbiome Purification Kit (Invitrogen™) following the manufacturer's protocol “Transport Media and Microbial Culture Samples” ([Invitrogen, 2015]).
FRePCR reactions were formulated to a volume of 25 μL and comprised of 1.25 μL of primers (10 μM), 0.05 μL probe (100 μM), 12.5 μL Master Mix 2X, LightCycler 480 Probes Master (ref. 04707494001, Roche), 4.95 μL H2O nuclease-free and 5 μL of DNA template. Quantitative PCR was run on a CFX96 real time PCR system (BioRad) with an initial step of activation (10 min 95 °C) following by 40 cycles with cycling conditions as follows: 95 °C for 10 s, 60 °C for 1 min. BioRad CFX manager software was used to analyse the data. Samples were considered negative if Cq ≥ 40.
A common way of defining a 50 % response is to use a mathematical model like the 4-parameter logistic model (4 PL) ([Sebaugh, 2011]). […]

[3] = tested on: C. parvum; assay: Quantification of C. parvum development in HCT-8 cells by immunofluorescence microscopy; type: cell-based, Cryptosporidium parvum (Iowa strain) in human HCT-8 cells; conditions: for effect on distribution of parasite area: 7.5 μM or 15 μM, added at 30 hpi until 48 hpi; for reduction in parasite quantification: 7.5 μM, added at 30 hpi, until 48 hpi, fluorescence microscopy
Description: as §1, §3
After aspiration of the supernatant from the Nunc™ Lab-Tek™ Chamber slide wells, cells were rinsed with PBS 1X. A fixation step was then performed using methanol during 8 min at 4 °C. Cryptosporidium developmental forms were labelled with a polyclonal IgG antibodies reaction kit tagged with Cy3 (Sporo-Glo™, Waterborne Inc.) and oocysts were labelled with FL-Crypt-a-Glo™, a fluorescein-labelled mouse monoclonal antibody made to oocyst outer wall antigenic sites (epitopes) of C. parvum. Antibodies were 1/20th diluted and incubated on cells for 1 h at room temperature. DNA was labelled with Hoechst for 5 min at room temperature. Slides were then coverslipped with a no fading mounting medium (Waterborne Inc.) and observed with a Leica DMi8 microscope. Each dilution was performed in triplicate and, for each well, ten images were taken at 400× magnification. Parasite quantification was carried out automatically using the StarDist neural network, which was specifically trained to detect and quantify C. parvum parasites.
To confirm our initial findings, we employed an alternative method using immunofluorescence microscopy to quantify C. parvum development in the presence of inhibitors (Fig. S1). […] The results corroborated our initial screening data, confirming the high efficacy of all tested chloronitrophenyl urea analogues, except for imidazole derivatives 18 and 19.
To test this hypothesis, increasing concentrations of squaramide 32 (i.e. 0, 2, 4 and 8 μM) were applied at different infection times: at 0 hpi (hours post infection), to assess the impact on parasite invasion; at 4 hpi, to examine the effect on the early stages of intracellular development; and at 30 hpi, to evaluate the influence on late stage intracellular development. The microscopic images in Fig. 7 illustrate the effect of 32 when applied at the onset of infection and at 30 hpi. Using fluorescent antibodies, the intracellular development of C. parvum is highlighted by green fluorescence, which allows for quantification of the number of parasites per image.

[4] = compounds at 0, 3, 6 and 9 μM added at t0 and left until 48 hpi, qPCR, read-out: IC50

| Structure (SMILES) | viability at 10 µM [1] | anti-cryptosporidial activity (in words) ([2]; qPCR) | inhibition at 10 µM ([2]; qPCR) | IC50 [2, 4] | effect on distribution of parasite area [3] | reduction in parasite quantification [3] | IC50 ([2]; previous experimentation based on qPCR, standard Cryptosporidium inhibitor in in vitro assays, read-out: mean IC50) |
| --- | --- | --- | --- | --- | --- | --- | --- |
| CC(=O)c1cccc(C(C)(C)Nc2c(Nc3ccc(Cl)c([N+](=O)[O-])c3)c(=O)c2=O)c1 [Compound 29, 3-((2-(3-acetylphenyl)propan-2-yl)amino)-4-((4-chloro-3-nitrophenyl)amino)cyclobut-3-ene-1,2-dione] | 97.2% | high | 87.7 ± 1.7% | 3.59 µM | – | – | – |
| CC(C)(NC(=O)Nc1ccc(Cl)c([N+](=O)[O-])c1)c1cccc(-c2cccs2)c1 [Compound 22] | 98.5% | – | 86.6 ± 2.6% | 3.77 µM | – | – | – |
| CC(C)(NC(=O)Nc1ccc(Cl)c([N+](=O)[O-])c1)c1cccc(-c2cccnc2F)c1 [Compound 24] | 96.8% | – | 83.4 ± 1.5% | 3.64 µM | dose-dependent effect | 10.5% | – |
| CC(C)(NC(=O)Nc1ccc(Cl)c([N+](=O)[O-])c1)c1cccc(-c2nccn2Cc2ccccc2)c1 [Compound 17] | 97.3% | – | 88.2 ± 1.1% | 4.69 µM | – | – | – |
| CC(C)(NC(=O)Nc1ccc(Cl)c([N+](=O)[O-])c1)c1cccc(-c2ccco2)c1 [Compound 21] | 98.3% | – | 64 ± 1% | 6.19 µM | – | – | – |
| CCOC(=O)n1cc(-c2cccc(C(C)(C)NC(=O)Nc3ccc(Cl)c([N+](=O)[O-])c3)c2)cn1 [Compound 15] | 97.5% | – | 71.7 ± 1.5% | 5.98 µM | – | – | – |
| CC(C)(NC(=O)NCc1ccccc1)c1cccc(-c2cc[nH]n2)c1 [Compound 6] | 97% | – | – | – | – | – | – |
| NC[C@@H]1O[C@H](O[C@H]2[C@@H](O)[C@H](O[C@@H]3[C@@H](O)[C@H](N)C[C@H](N)[C@H]3O[C@H]3O[C@H](CO)[C@@H](O)[C@H](O)[C@H]3N)O[C@@H]2CO)[C@H](N)[C@@H](O)[C@@H]1O [Paromomycin, reference compound] | – | – | – | – | – | – | 511 µM |
| CC(C)(NC(=O)Nc1ccc(Cl)c([N+](=O)[O-])c1)c1cccc(-c2nccs2)c1 [Compound 20] | 98.4% | – | 85.7 ± 2.2% | 4.51 µM | – | – | – |
| CC(C)(NC(=O)Nc1ccc(Cl)c([N+](=O)[O-])c1)c1cccc(-c2c[nH]cn2)c1 [Compound 19] | 97.4% | – | ≤ 50% | – | – | – | – |
| CC(C)(NC(=O)NCc1ccccc1)c1cccc(-c2cccs2)c1 [Compound 9] | 95.4% | – | – | – | – | – | – |
| CC(C)(NC(=O)Nc1ccc(Cl)c([N+](=O)[O-])c1)c1cccc(-c2cc[nH]n2)c1 [Compound 14] | 97.6% | – | 85.1 ± 3.8% | 6.19 µM | – | – | – |
| CC(C)(Nc1c(Nc2ccc(Cl)c([N+](=O)[O-])c2)c(=O)c1=O)c1cccc(-c2cc[nH]n2)c1 [Compound 30, 3-((2-(3-(1H-Pyrazol-3-yl)phenyl)propan-2-yl)amino)-4-((4-chloro-3-nitrophenyl)amino)cyclobut-3-ene-1,2-dione] | 98.2% | medium | – | – | – | – | – |
| CCOC(=O)n1ccc(-c2cccc(C(C)(C)NC(=O)Nc3ccc(Cl)c([N+](=O)[O-])c3)c2)n1 [Compound 13] | 97.2% | – | 87.5 ± 6.4% | 5.44 µM | – | – | – |
| CC(C)(NC(=O)NCc1ccccc1)c1cccc(-c2ccco2)c1 [Compound 8] | 95.9% | – | – | – | – | – | – |
| CC(C)(NC(=O)Nc1ccc(Cl)c([N+](=O)[O-])c1)c1cccc(-c2cn[nH]c2)c1 [Compound 16] | 96.4% | – | 64.3 ± 3.9% | 5.32 µM | – | – | – |
| CCOc1ncccc1-c1cccc(C(C)(C)NC(=O)Nc2ccc(Cl)c([N+](=O)[O-])c2)c1 [Compound 23] | 94.1% | – | 88 ± 3.5% | 3.23 µM | successfully inhibits larger parasites | 32% | – |
| CC(C)(NC(=O)NCc1ccccc1)c1cccc(-c2cn[nH]c2)c1 [Compound 7] | 96.7% | – | – | – | – | – | – |
| CC(C)(NC(=O)Nc1ccc(Cl)c([N+](=O)[O-])c1)c1cccc(-c2cn(C(c3ccccc3)(c3ccccc3)c3ccccc3)cn2)c1 [Compound 18] | 97.3% | – | ≤ 50% | – | – | – | – |
| CC(C)(NC(=O)NCc1ccccc1)c1cccc(-c2ccccc2)c1 [Compound 10] | 97.4% | – | – | – | – | – | – |
